Source: US12559488B2, “Substituted morpholines as ATR kinase inhibitors” (JIANGSU HENGRUI MEDICINE CO., LTD., priority 2019, dated 2026)

Experiments:
ATR enzyme = biological target: T1, ATR enzyme (Homo sapiens, UniProt Q13535); assay: Inhibitory effect on ATR enzyme (phospho-p53 HTRF); type: biochemical; details: for IC50: 1 nM ATR enzyme, 50 nM P53 protein, 7.435 μM ATP, 2 h room temperature, read-out: IC50 for ATR enzyme inhibition; for Maximum inhibition (%) of ATR enzyme: compound serially 3-fold diluted from 1 μM
T1 construct: purchased Eurofins Pharma Discovery Services 14-953-M
T1 sequence (Q13535 whole entry): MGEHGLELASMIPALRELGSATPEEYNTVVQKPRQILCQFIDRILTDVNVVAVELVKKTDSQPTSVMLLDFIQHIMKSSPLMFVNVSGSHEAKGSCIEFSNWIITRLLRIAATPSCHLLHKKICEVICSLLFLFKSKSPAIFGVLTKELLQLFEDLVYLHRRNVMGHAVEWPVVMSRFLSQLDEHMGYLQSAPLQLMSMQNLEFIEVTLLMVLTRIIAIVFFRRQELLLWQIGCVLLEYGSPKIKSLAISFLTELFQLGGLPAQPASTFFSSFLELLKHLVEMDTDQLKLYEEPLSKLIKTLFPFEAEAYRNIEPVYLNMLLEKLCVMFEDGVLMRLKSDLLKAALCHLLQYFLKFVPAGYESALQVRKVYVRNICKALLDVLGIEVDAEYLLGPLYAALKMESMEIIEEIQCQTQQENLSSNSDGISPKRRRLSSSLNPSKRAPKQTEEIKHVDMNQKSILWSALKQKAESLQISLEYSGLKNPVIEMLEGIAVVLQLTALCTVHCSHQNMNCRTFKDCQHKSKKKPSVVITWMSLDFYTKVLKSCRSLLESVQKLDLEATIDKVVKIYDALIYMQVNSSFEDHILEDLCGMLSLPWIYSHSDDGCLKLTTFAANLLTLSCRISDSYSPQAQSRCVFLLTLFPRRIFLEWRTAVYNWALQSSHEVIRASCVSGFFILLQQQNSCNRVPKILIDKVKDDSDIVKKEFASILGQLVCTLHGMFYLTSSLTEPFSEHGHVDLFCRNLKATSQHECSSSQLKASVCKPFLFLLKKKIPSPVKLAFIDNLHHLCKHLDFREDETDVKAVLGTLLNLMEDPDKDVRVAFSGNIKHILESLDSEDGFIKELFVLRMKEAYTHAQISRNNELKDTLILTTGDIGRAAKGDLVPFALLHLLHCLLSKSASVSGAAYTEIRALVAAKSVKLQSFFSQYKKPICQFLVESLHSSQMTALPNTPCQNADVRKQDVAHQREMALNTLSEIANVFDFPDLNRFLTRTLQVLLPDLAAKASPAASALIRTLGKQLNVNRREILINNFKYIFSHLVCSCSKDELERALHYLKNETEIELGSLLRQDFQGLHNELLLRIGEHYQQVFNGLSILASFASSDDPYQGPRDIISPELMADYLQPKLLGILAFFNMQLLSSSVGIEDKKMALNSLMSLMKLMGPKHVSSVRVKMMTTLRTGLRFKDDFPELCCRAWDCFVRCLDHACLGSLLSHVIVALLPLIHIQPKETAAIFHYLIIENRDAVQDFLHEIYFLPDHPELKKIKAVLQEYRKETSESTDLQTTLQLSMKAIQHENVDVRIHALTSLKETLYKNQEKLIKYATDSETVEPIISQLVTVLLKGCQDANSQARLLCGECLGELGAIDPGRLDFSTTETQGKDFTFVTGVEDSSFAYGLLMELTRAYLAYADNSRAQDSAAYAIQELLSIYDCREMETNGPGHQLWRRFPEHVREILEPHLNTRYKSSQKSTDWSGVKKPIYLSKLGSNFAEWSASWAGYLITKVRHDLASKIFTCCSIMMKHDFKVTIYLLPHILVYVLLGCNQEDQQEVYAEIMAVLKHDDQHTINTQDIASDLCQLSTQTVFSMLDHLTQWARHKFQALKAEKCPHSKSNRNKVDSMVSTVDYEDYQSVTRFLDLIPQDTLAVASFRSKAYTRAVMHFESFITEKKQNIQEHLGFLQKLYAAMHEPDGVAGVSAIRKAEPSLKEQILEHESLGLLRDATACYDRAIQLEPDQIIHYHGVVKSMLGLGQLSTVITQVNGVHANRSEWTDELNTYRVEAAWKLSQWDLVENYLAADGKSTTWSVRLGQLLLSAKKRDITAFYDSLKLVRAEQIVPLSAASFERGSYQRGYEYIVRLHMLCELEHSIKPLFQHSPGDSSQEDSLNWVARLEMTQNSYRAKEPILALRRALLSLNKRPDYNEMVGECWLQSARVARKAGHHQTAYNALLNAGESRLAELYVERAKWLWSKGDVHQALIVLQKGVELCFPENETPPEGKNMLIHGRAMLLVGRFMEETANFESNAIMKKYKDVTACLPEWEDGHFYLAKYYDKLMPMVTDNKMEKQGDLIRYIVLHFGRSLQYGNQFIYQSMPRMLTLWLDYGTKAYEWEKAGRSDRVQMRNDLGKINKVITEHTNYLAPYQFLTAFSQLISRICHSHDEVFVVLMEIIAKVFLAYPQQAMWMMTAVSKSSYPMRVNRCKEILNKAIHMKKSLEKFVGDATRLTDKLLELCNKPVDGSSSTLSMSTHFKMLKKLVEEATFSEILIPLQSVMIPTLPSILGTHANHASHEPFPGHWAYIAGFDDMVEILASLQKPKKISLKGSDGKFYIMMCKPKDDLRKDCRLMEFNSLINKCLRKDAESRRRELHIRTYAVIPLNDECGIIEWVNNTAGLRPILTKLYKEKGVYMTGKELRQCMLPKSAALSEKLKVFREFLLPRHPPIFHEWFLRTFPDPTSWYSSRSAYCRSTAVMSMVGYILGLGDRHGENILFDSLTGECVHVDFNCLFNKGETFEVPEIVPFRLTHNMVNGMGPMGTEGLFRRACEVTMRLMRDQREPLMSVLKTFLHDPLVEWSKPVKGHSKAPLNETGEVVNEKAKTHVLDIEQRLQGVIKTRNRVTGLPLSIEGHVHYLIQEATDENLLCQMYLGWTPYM
T1 sequence (Q8WXE1 whole entry partner): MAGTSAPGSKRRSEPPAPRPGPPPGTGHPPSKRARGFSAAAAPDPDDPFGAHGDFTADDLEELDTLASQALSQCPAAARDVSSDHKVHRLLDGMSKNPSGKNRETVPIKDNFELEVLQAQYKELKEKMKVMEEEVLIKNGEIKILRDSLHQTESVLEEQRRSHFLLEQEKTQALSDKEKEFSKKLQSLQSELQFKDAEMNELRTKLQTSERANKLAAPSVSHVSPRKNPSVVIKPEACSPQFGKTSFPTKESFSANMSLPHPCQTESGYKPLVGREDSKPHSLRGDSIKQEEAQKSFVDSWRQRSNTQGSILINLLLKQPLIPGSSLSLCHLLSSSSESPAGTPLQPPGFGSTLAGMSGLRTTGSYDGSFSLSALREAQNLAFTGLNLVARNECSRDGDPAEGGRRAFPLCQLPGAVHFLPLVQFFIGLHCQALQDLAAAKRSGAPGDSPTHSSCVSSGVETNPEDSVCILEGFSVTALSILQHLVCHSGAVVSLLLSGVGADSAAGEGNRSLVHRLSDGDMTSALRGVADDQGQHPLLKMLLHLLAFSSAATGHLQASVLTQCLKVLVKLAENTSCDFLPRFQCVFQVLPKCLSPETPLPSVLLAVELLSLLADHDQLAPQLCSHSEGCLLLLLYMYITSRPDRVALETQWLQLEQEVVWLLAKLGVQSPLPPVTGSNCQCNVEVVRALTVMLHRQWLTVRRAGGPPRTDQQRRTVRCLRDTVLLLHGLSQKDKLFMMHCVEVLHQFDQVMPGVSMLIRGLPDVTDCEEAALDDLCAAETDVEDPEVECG
Text: The following method was used to determine the inhibitory effect of the compounds disclosed herein on ATR enzyme. The experimental methodology is briefly described as follows:
• 1. ATR enzyme (Eurofins Pharma Discovery Services, 14-953-M) • 2. GST-tag P53 protein (Eurofins Pharma Discovery Services, 14-952-M) • 3. 384-well plate (Thermo Scientific, 267462) • 4. U-shaped bottom 96-well plate (Corning, 3795) • 5. MAb Anti-phospho p53-Eu cryptate (Cisbio, 61P08KAE) • 6. MAb Anti GST-d2 (Cisbio, 61GSTDLF) • 7. ATP solution (Promega, V916B) • 8. EDTA (Thermo Scientific, AM9260G) • 9. HEPES (Gibco, 15630-080) • 10. Microplate reader (BMG, PHERAsta)
1 nM ATR enzyme, 50 nM P53 protein, 7.435 μM ATP and small molecule compounds of different concentrations (serially 3-fold diluted from 1 μM to the 11th concentration) were mixed and incubated at room temperature for 2 h. A terminating buffer (12.5 mM HEPES, 250 mM EDTA) was added. The mixture was well mixed before 0.42 ng/well of mAb anti-phospho p53-Eu cryptate and 25 ng/well of mAb anti GST-d2 were added. The mixture was incubated overnight at room temperature, and the fluorescence signals at 620 nm and 665 nm were detected using a PHERAstar system. Data were processed using GraphPad software.

LoVo cells = assay: LoVo cell proliferation assay (intracellular ATP content, CellTiter-Glo); type: cell-based; details: LoVo human colon cancer cells, 3 days incubation; for IC50: 72 h, read-out: IC50 for LoVo cell proliferation inhibition
Text: The following method evaluates the inhibitory effect of the compounds disclosed herein on the proliferation of LoVo cells via IC50 by measuring the intracellular ATP content. The experimental methodology is briefly described as follows:
• 1. LoVo, human colon cancer cells (Cobioer, Nanjing, CBP60032) • 2. Fetal bovine serum (FBS) (Gibco, 10091-148) • 3. F-12K Medium (Gibco, 21127030) • 4. CellTite-Glo reagent (Promega, G7573) • 5. 96-well cell culture plate (Corning, 3903) • 6. Pancreatin (Invitrogen, 25200-072) • 7. Microplate reader (BMG, PHERAstar) • 8. Cell counter (Countstar, Shanghai, IC1000)
LoVo cells were cultured in an F-12K culture medium containing 10% of FBS, and passaged twice or thrice a week in a passage ratio of 1:3 or 1:5. During passage, cells were digested by pancreatin, transferred to a centrifuge tube, and centrifuged for 3 min at 1200 rpm. The supernatant was discarded, and fresh culture medium was added to resuspend the cells. To a 96-well cell culture plate, 90 μL of the cell suspension was added at a density of 3.88×10^4 cells/mL. To peripheral wells of the 96-well plate, only 100 μL of complete medium was added. The plate was incubated in an incubator for 24 h (37° C., 5% CO2).
The test samples were diluted to 2 mM in DMSO and serially 3-fold diluted to the 10th concentration. Blank and control wells were set. 5 μL of the serially diluted test compound solutions was added to 95 μL of fresh medium. 10 μL of the medium containing the compound above was added to the plate. The plate was incubated in an incubator for 3 days (37° C., 5% CO2). 50 μL of CellTiter-Glo reagent was added into each well of the 96-well cell culture plate. The plate was let stand for 5-10 min in the dark at room temperature. The chemiluminescence signals were read by a PHERAstar system, and the data were processed by GraphPad software.

[1] = Pharmacokinetic study in rats after intragastric administration; type: in vivo; details: both sexes, Sprague-Dawley (SD), rat, plasma, po, 2 mg/kg; for Vd/F: read-out: Apparent volume of distribution Vz/F; for AUC: read-out: Area under curve AUC; for CL/F: read-out: Clearance CL/F; for half-life: read-out: Half life T1/2 (converted); for Cmax: read-out: Plasma concentration Cmax; for MRT: read-out: Retention time MRT
Description: The plasma concentration of the compounds of Examples 1, 2 and 3 in rats after intragastric administration were measured by LC/MS/MS. The pharmacokinetic performance in rats of the compounds disclosed herein was studied and their pharmacokinetic profile was evaluated.
The compounds of Examples 1, 2 and 3.
12 healthy adult SD rats (half male and half female; purchased from Vital River) were evenly divided into 3 groups of 4.
A certain amount of the compound was added to a mixed solvent containing 5% of DMSO, 5% of Tween 80 and 90% of normal saline to obtain a colorless and clear solution.
SD rats were intragastrically administered with the compounds after fasting overnight, at a dose of 2 mg/kg and a volume of 10.0 mL/kg.
Rats were intragastrically administered with the compounds of Examples 1, 2 and 3. 0.2 mL of blood was collected from the orbit pre-dose and at 0.25, 0.5, 1.0, 2.0, 4.0, 6.0, 8.0, 11.0 and 24.0 h post-does. The blood samples were transferred to EDTA-K2kk anticoagulation vacutainers, centrifuged at 4° C. and 11000 rpm for 5 min to separate plasma. The plasma samples were stored at −20° C. The mice were fed 2 h after administration.
The plasma concentration of the compounds in rats after intragastric administration was determined: 25 μL of rat plasma at each time point post-dose was mixed with 50 μL of internal standard and 175 μL of acetonitrile; the mixture was vortexed 5 min, and centrifuged for 10 min at 4000 rpm. 1 μL of supernatant was taken for LC/MS/MS analysis.

SMILES	IC50 (ATR enzyme)	Maximum inhibition (%) of ATR enzyme (ATR enzyme)	IC50 (LoVo cells)	Vd/F [1]	AUC [1]	CL/F [1]	half-life [1]	Cmax [1]	MRT [1]	Maximum inhibition (%) of LoVo cell proliferation (LoVo cells)
C[C@@H]1COCCN1c1cc(C(C)(C)O)c2c(n1)c(-c1cc[nH]n1)nn2C [Comparative Example 1, (R)-2-(1-methyl-5-(3-methylmorpholinyl)-3-(1H-pyrazol-3-yl)-1H-pyrazolo[4,3-b]pyridin-7-yl)propan-2-ol, reference compound]	73 nM	97%	316 nM	–	–	–	–	–	–	92%
C[C@@H]1COCCN1c1cc(C(C)(C)C#N)c2c(n1)c(-c1cc[nH]n1)nn2C [Example 1, (R)-2-methyl-2-(1-methyl-5-(3-methylmorpholinyl)-3-(1H-pyrazol-3-yl)-1H-pyrazolo[4,3-b]pyridin-7-yl)propanenitrile]	–	–	43 nM	–	–	–	–	–	–	–
C[C@@H]1COCCN1c1cc(C2(C#N)CC2)c2c(n1)c(-c1cc[nH]n1)nn2C [Example 2, (R)-1-(1-methyl-5-(3-methylmorpholinyl)-3-(1H-pyrazol-3-yl)-1H-pyrazolo[4,3-b]pyridin-7-yl)cyclopropanenitrile]	9 nM	100%	75 nM	7.8 ± 6.13 L/kg	1590 ± 1390 ng·h/mL	51.7 ± 49.5 mL/min/kg	2.57 ± 1.39 h	309 ± 219 ng/mL	3.99 ± 2.26 h	90%

Second part, led by results:

IC50 (ATR enzyme)	Maximum inhibition (%) of ATR enzyme (ATR enzyme)	IC50 (LoVo cells)	Vd/F [1]	AUC [1]	CL/F [1]	half-life [1]	Cmax [1]	MRT [1]	SMILES	Maximum inhibition (%) of LoVo cell proliferation (LoVo cells)
6 nM	100%	64 nM	–	–	–	–	–	–	CCn1nc(-c2cc[nH]n2)c2nc(N3CCOC[C@H]3C)cc(C(C)(C)C#N)c21 [Example 4, (R)-2-(1-ethyl-5-(3-methylmorpholinyl)-3-(1H-pyrazol-3-yl)-1H-pyrazolo[4,3-b]pyridin-7-yl)-2-methylpropanenitrile]	89%
8 nM	100%	100 nM	–	–	–	–	–	–	CCn1nc(-c2cc[nH]n2)c2nc(N3CCOC[C@H]3C)cc(C3(C#N)CC3)c21 [Example 5, (R)-1-(1-ethyl-5-(3-methylmorpholinyl)-3-(1H-pyrazol-3-yl)-1H-pyrazolo[4,3-b]pyridin-7-yl) cyclopropanenitrile]	93%
3 nM	100%	55 nM	–	–	–	–	–	–	C[C@@H]1COCCN1c1cc(C(C)(C)C#N)c2[nH]nc(-c3cc[nH]n3)c2n1 [Example 6, (R)-2-methyl-2-(5-(3-methylmorpholinyl)-3-(1H-pyrazol-3-yl)-1H-pyrazolo[4,3-b]pyridin-7-yl)propanenitrile]	95%
15 nM	100%	124 nM	2.44 ± 0.448 L/kg	2710 ± 807 ng·h/mL	13.1 ± 3.7 mL/min/kg	2.23 ± 0.53 h	674 ± 86.7 ng/mL	3.26 ± 0.67 h	C[C@@H]1COCCN1c1cc(-c2ccnn2C)c2c(n1)c(-c1cc[nH]n1)nn2C [Example 3, (R)-3-methyl-4-(1-methyl-7-(1-methyl-1H-pyrazol-5-yl)-3-(1H-pyrazol-3-yl)-1H-pyrazolo[4,3-b]pyridin-5-yl) morpholine]	87%
